These results are taken from patent US5378730A, “Permeation enhancer comprising ethanol and monoglycerides” (priority 1992, dated 1995).

The data set is classed as in vitro ADME, human. Here is the method: The optimum range of water in a permeation-enhancing mixture when used with the drug sodium piroxicam, where the ratio of Myverol 99K monoglyceride to ethanol is 40 to 55.4 in the mixture, was determined as follows. Various ethanol/Myverol 18-99K/water donor compositions, in the weight ratios listed in Table C, were tested with sodium piroxicam to measure their effect upon the drug flux across human cadaver epidermis at 35° C. The ratio of ethanol to monoglyceride was initially 55.4 to 40, to which varying amounts of water were added. All donor compositions were saturated with the drug. Test data were obtained using a 1.13 cm^2 wet-wet horizontal flux cell with 0.2 ml donor solution and 20 ml receptor solutions (pH 7.4 phosphate buffer, 0.05 M).

For `CN1C(C(=O)Nc2ccccn2)=C(O)c2ccccc2S1(=O)=O` [sodium piroxicam], the “optimum range of water content in the permeation-enhancing mixture” value was 23-33 wt %.
